Data reported in ChEMBL document CHEMBL4483862, “Open-source discovery of chemical leads for next-generation chemoprotective antimalarials” (2018).

Tested on: Plasmodium berghei
Test: Luciferase/luciferin-expressing antifolate-resistant parasites were used to infect a culture of HepG2 cells that were pre-incubated with compounds. Infected hepatocytes emit light due to the luciferase reaction. Assay results are presented as the percent inhibition of light emission compared to control. […]
Type: functional
Settings: sporozoite; for IC90: read-out: LUCIFERASE INFECTION ASSAY - IC90
[1] = read-out: LUCIFERASE INFECTION ASSAY - IC50

## COc1ccc(-c2nc3ccc(NC(=O)Nc4ccc(OC)c(OC)c4)cn3n2)cc1
[1]
  IC50: > 10 µM
  IC90: > 10 µM

## CCc1ccc(-c2nc(C(=O)Nn3cn[nH]c3=S)cs2)cc1
PBLUC_HILL_SLOPE 3.31, PBLUC_R_SQUARED 0.251, read-out: LUCIFERASE INFECTION ASSAY - IC50
  IC50: 5.44 µM
  IC90: > 10 µM

## COc1cncc(-c2cnn3ccc(Nc4ccc(Oc5ccccc5)cc4)nc23)c1
HEPG2TOX_HILL_SLOPE 17.9, HEPG2TOX_R_SQUARED 0.509, PBLUC_HILL_SLOPE 0.505, PBLUC_R_SQUARED 0.666, read-out: LUCIFERASE INFECTION ASSAY - IC50
  IC50: > 8.06 µM
  IC90: > 8.06 µM

## Nc1nc(-c2ccc(OCc3ccc(F)cc3)cc2)cs1
[1]
  IC50: > 8.66 µM
  IC90: > 8.66 µM

## COc1ccc2ccccc2c1/C=N/Nc1ncc(C(F)(F)F)cc1Cl
HEPG2TOX_HILL_SLOPE 1.11, HEPG2TOX_R_SQUARED 0.987, read-out: LUCIFERASE INFECTION ASSAY - IC50
  IC50: > 10 µM
  IC90: > 10 µM

## CC1(C)CC2CC(C)(CN2C(=O)CSc2nnc(-c3cc(-c4cccs4)nc4ccccc34)o2)C1 (centres undefined)
PBLUC_HILL_SLOPE 1.06, PBLUC_R_SQUARED 0.333, read-out: LUCIFERASE INFECTION ASSAY - IC50
  IC50: > 10 µM
  IC90: > 10 µM

## COc1cccc(-c2ccc3ncc(-c4cccc(C(=O)NCCN(C)C)c4)n3n2)c1
[1]
  IC50: 1.69 µM
  IC90: 4.07 µM

## Cc1noc(C)c1COc1ccc(C(=O)OCC(=O)NCCC2=CCCCC2)cc1
HEPG2TOX_HILL_SLOPE 9.34, HEPG2TOX_R_SQUARED 0.702, PBLUC_HILL_SLOPE 3.46, PBLUC_R_SQUARED 0.677, read-out: LUCIFERASE INFECTION ASSAY - IC50
  IC50: 4.45 µM
  IC90: 8.4 µM

## O=C(Nc1cccc(S(=O)(=O)N2CCCCC2)c1)c1cn(-c2ccccc2C(F)(F)F)nn1
FFLUC_HILL_SLOPE 0.647, FFLUC_R_SQUARED 0.258, read-out: LUCIFERASE INFECTION ASSAY - IC50
  IC50: > 10 µM
  IC90: > 10 µM

## O=C(Nc1ccc(N2CCN(c3ccc(C(F)(F)F)cn3)CC2)nc1)c1cccs1
PBLUC_HILL_SLOPE 0.747, PBLUC_R_SQUARED 0.763, read-out: LUCIFERASE INFECTION ASSAY - IC50
  IC50: 0.638 µM
  IC90: > 7.61 µM

## Nc1nc(Nc2cc(Cl)cc(Cl)c2)c2[nH]cnc2n1
PBLUC_HILL_SLOPE 2.21, PBLUC_R_SQUARED 0.753, read-out: LUCIFERASE INFECTION ASSAY - IC50
  IC50: 3.18 µM
  IC90: 8.62 µM

## CC(=O)N1CCCC(c2cc(C(=O)Nc3ccccc3)no2)C1 (centres undefined)
FFLUC_HILL_SLOPE 1.94, FFLUC_R_SQUARED 0.745, PBLUC_HILL_SLOPE 0.811, PBLUC_R_SQUARED 0.626, read-out: LUCIFERASE INFECTION ASSAY - IC50
  IC50: 0.0959 µM
  IC90: 1.44 µM

## CCCCc1noc(C(C)Sc2nc(C(C)(C)C)nc3c2c(=O)n(C)c(=O)n3C)n1 (centres undefined)
HEPG2TOX_HILL_SLOPE 1.13, HEPG2TOX_R_SQUARED 0.608, PBLUC_HILL_SLOPE 1.15, PBLUC_R_SQUARED 0.641, read-out: LUCIFERASE INFECTION ASSAY - IC50
  IC50: 3.92 µM
  IC90: > 10 µM

## Cc1ccc(-c2nn(-c3ncc(Cl)cc3Cl)c(=O)c3ccccc23)cc1
HEPG2TOX_HILL_SLOPE 2.58, HEPG2TOX_R_SQUARED 0.712, read-out: LUCIFERASE INFECTION ASSAY - IC50
  IC50: > 10 µM
  IC90: > 10 µM

## Cc1csc2sc(C(=O)N3CCOCC3)c(C)c12
[1]
  IC50: > 11.7 µM
  IC90: > 11.7 µM

## O=C(Nc1ccc(-c2csc(N3CCOCC3)n2)cc1)c1cccc(F)c1
[1]
  IC50: > 10 µM
  IC90: > 10 µM

## CCCn1c(NC(=O)c2cccnc2OCC)nc2ccccc21
PBLUC_HILL_SLOPE 4.52, PBLUC_R_SQUARED 0.28, read-out: LUCIFERASE INFECTION ASSAY - IC50
  IC50: 7.59 µM
  IC90: > 10 µM

## CCOC(=O)c1c(NC(=O)Cn2ncc(Cl)c(Cl)c2=O)sc(C(=O)NC)c1C
HEPG2TOX_HILL_SLOPE 14.3, HEPG2TOX_R_SQUARED 0.883, PBLUC_HILL_SLOPE 2.04, PBLUC_R_SQUARED 0.801, read-out: LUCIFERASE INFECTION ASSAY - IC50
  IC50: 2.11 µM
  IC90: 6.18 µM

## C=C(C)CNC(=S)N/N=C1\C(=O)Nc2ccc([N+](=O)[O-])cc21
FFLUC_HILL_SLOPE 2.67, FFLUC_R_SQUARED 0.288, PBLUC_HILL_SLOPE 15.8, PBLUC_R_SQUARED 0.124, read-out: LUCIFERASE INFECTION ASSAY - IC50
  IC50: 8.97 µM
  IC90: > 10 µM

## Cc1cc(C(=O)CN(C)S(=O)(=O)c2cccs2)c(C)n1-c1ccccn1
PBLUC_HILL_SLOPE 0.948, PBLUC_R_SQUARED 0.586, read-out: LUCIFERASE INFECTION ASSAY - IC50
  IC50: 2.02 µM
  IC90: > 10 µM

## c1cncc(-c2nc(Oc3ccc(-c4nnc5n4CCCCC5)cc3)c3ccccc3n2)c1
PBLUC_HILL_SLOPE 11.7, PBLUC_R_SQUARED 0.282, read-out: LUCIFERASE INFECTION ASSAY - IC50
  IC50: > 10 µM
  IC90: > 10 µM

## Cc1nn(-c2ccccc2)nc1C(=O)NCc1ccccc1-c1ccc(CN(C)C)cc1
[1]
  IC50: 3.7 µM
  IC90: 5.83 µM

## COCCCN1C(=O)N(Cc2ccccc2)C(=O)C12CCN(CCC(C)c1ccc(C)o1)CC2 (centres undefined)
PBLUC_HILL_SLOPE 7.49, PBLUC_R_SQUARED 0.22, read-out: LUCIFERASE INFECTION ASSAY - IC50
  IC50: 6.36 µM
  IC90: > 7.06 µM

## O=C(NC1CCN(Cc2ccccc2)CC1)N1CCN(Cc2ccc(Br)s2)CC1
HEPG2TOX_HILL_SLOPE 3.62, HEPG2TOX_R_SQUARED 0.356, PBLUC_HILL_SLOPE 12.1, PBLUC_R_SQUARED 0.388, read-out: LUCIFERASE INFECTION ASSAY - IC50
  IC50: 3.62 µM
  IC90: 4.35 µM

## OC(CNCCc1ccc(Cl)cc1Cl)COc1ccccc1 (centres undefined)
[1]
  IC50: > 10 µM
  IC90: > 10 µM

## COc1ccc(-c2cn3c(-c4ccc(OC)nc4)cnc3cn2)cn1
PBLUC_HILL_SLOPE 11.1, PBLUC_R_SQUARED 0.0252, read-out: LUCIFERASE INFECTION ASSAY - IC50
  IC50: 9.58 µM
  IC90: > 9.9 µM

## Cc1nn2c(=O)cc(C(C)C)[nH]c2c1-c1ccc(F)cc1
[1]
  IC50: > 11.6 µM
  IC90: > 11.6 µM

## C#CCSc1nnc(-c2ccc(C(C)(C)C)cc2)n1-c1ccc(C(C)C)cc1
PBLUC_HILL_SLOPE 0.5, PBLUC_R_SQUARED 0.648, read-out: LUCIFERASE INFECTION ASSAY - IC50
  IC50: > 8.47 µM
  IC90: > 8.47 µM

## C=C(C)CSc1nc2cc(-c3ccc(C)cc3)sc2c(=O)n1Cc1ccccc1
FFLUC_HILL_SLOPE 3.73, FFLUC_R_SQUARED 0.533, read-out: LUCIFERASE INFECTION ASSAY - IC50
  IC50: > 10 µM
  IC90: > 10 µM

## CC1(C)CC(=O)C(C(c2ccc(OCc3ccccc3)cc2)C2C(=O)CC(C)(C)CC2=O)C(=O)C1
FFLUC_HILL_SLOPE 2.7, FFLUC_R_SQUARED 0.381, read-out: LUCIFERASE INFECTION ASSAY - IC50
  IC50: > 10 µM
  IC90: > 10 µM

## O=C(/C=C/c1ccc(-c2ccccc2Cl)s1)N1CCN(c2ncccn2)CC1
HEPG2TOX_HILL_SLOPE 11.1, HEPG2TOX_R_SQUARED 0.736, PBLUC_HILL_SLOPE 11.3, PBLUC_R_SQUARED 0.239, read-out: LUCIFERASE INFECTION ASSAY - IC50
  IC50: 9.23 µM
  IC90: > 10 µM

## O=C(NC(=O)N1CCc2c([nH]c3ccccc23)C1C(F)(F)F)c1ccccc1 (centres undefined)
[1]
  IC50: > 8.52 µM
  IC90: > 8.52 µM

## CC(C)(C)c1ccc(-c2cnc3cnc(-c4cccc(C(N)=O)c4)cn23)cc1
PBLUC_HILL_SLOPE 3.04, PBLUC_R_SQUARED 0.545, read-out: LUCIFERASE INFECTION ASSAY - IC50
  IC50: 6.86 µM
  IC90: > 8.91 µM

## Cc1ccc2nc(NC(=O)c3ccc(Cl)cc3)c(C(=O)NCC(C)C)n2c1
[1]
  IC50: 2.76 µM
  IC90: 2.91 µM

## Cc1ccc(-n2c(C)cc(C(=O)CSc3n[nH]c(=O)n3C3CC3)c2C)cc1C
[1]
  IC50: > 10 µM
  IC90: > 10 µM

## O=C(NC(=O)c1cnn2c(C(F)(F)F)cc(C(F)(F)F)nc12)Nc1ccc(Cl)cc1
[1]
  IC50: > 7.31 µM
  IC90: > 7.31 µM

## CCc1c(C#N)c(SCC(=O)c2cc(C)n(-c3ccccc3)c2C)nc2c1C(=O)CC(C)(C)C2
[1]
  IC50: > 10 µM
  IC90: > 10 µM

## O=S(=O)(Nc1ccc(Oc2cc(C(F)(F)F)cc(C(F)(F)F)c2)cc1)c1cc(C(F)(F)F)cc(C(F)(F)F)c1
FFLUC_HILL_SLOPE 18.8, FFLUC_R_SQUARED 0.264, HEPG2TOX_HILL_SLOPE 15.6, HEPG2TOX_R_SQUARED 0.875, PBLUC_HILL_SLOPE 191, PBLUC_R_SQUARED 0.155, read-out: LUCIFERASE INFECTION ASSAY - IC50
  IC50: 3.76 µM
  IC90: 3.81 µM

## C(=N\N1CCN(c2ccccn2)CC1)/C1=C(Sc2nc3ccccc3s2)CCCC1
HEPG2TOX_HILL_SLOPE 7.72, HEPG2TOX_R_SQUARED 0.819, PBLUC_HILL_SLOPE 7.09, PBLUC_R_SQUARED 0.503, read-out: LUCIFERASE INFECTION ASSAY - IC50
  IC50: 7.43 µM
  IC90: > 10 µM

## COc1cc(-c2cc(-c3ccccc3F)cnc2N)ccc1O
PBLUC_HILL_SLOPE 10.3, PBLUC_R_SQUARED 0.764, read-out: LUCIFERASE INFECTION ASSAY - IC50
  IC50: 3.41 µM
  IC90: 4.23 µM

## NC(=O)c1ccc(-c2cc(-c3ccccc3Oc3ccccc3)cnc2N)cc1
PBLUC_HILL_SLOPE 21, PBLUC_R_SQUARED 0.292, read-out: LUCIFERASE INFECTION ASSAY - IC50
  IC50: 2.68 µM
  IC90: 2.98 µM

## COc1ccc(Sc2ccc([N+](=O)[O-])c3nonc23)cc1
FFLUC_HILL_SLOPE 14.3, FFLUC_R_SQUARED 0.436, HEPG2TOX_HILL_SLOPE 9.62, HEPG2TOX_R_SQUARED 0.82, PBLUC_HILL_SLOPE 22.9, PBLUC_R_SQUARED 0.553, read-out: LUCIFERASE INFECTION ASSAY - IC50
  IC50: 9.76 µM
  IC90: 10.7 µM
